From patent US20100056468A1, “Pyrimidine Derivatives As Anticancer Agents” (University Health Network, priority 2007, published 2010)
Read-outs that look alike come from different tables or passages of the source.

What was measured:
Mt ODCase = Mt ODCase (Methanothermobacter thermautotrophicus, UniProt O26232); conditions: read-out: inhibition constant (Ki), Mt ODCase; cited from earlier work
MDA-MB-468 = assay: WST-1 cell growth assay (Table 3); assay type: cell-based; conditions: Homo sapiens, 72 h; MDA-MB-468 breast adenocarcinoma, 3 days
Procedure: (§1) Thirteen C6 substituted nucleoside derivatives were tested against seventeen cancer cell lines in order to understand their anticancer activity potential. Cell growth was measured in 96 well plates (6 replicates per dose) in which 10^4 cells were seeded for 3 days with a range of concentrations of compound Ic and Id using the Roche WST-1 assay (Ishiyama M et al (1995) In Vitro Toxicology 8, 187-189) following manufactures directions.

OVCAR4 = assay: WST-1 cell growth assay (Table 3); assay type: cell-based; conditions: Homo sapiens, OVCAR-4, 72 h; OVCAR4 ovarian adenocarcinoma, 3 days
Procedure: as §1

COLO205 = assay: WST-1 cell growth assay (Table 3); assay type: cell-based; conditions: Homo sapiens, COLO 205, 72 h; COLO205 colorectal adenocarcinoma, 3 days
Procedure: as §1

OCI MY2 = assay: WST-1 cell growth assay (Table 3); assay type: cell-based; conditions: Homo sapiens, 72 h; OCI MY2 myeloma, 3 days
Procedure: as §1

OCI AML1 = assay: WST-1 cell growth assay (Table 3); assay type: cell-based; conditions: Homo sapiens, 72 h; OCI AML1 myloid leukemia, 3 days
Procedure: as §1

HS578T = assay: WST-1 cell growth assay (Table 3); assay type: cell-based; conditions: Homo sapiens, Hs-578T, 72 h; HS578T breast carcinosarcoma, 3 days
Procedure: as §1

CCD967 = assay: WST-1 cell growth assay (Table 3); assay type: cell-based; conditions: Homo sapiens, CCD-967, 72 h; CCD967 skin fibroblast line, 3 days
Procedure: as §1

SKW3 = assay: WST-1 cell growth assay (Table 3); assay type: cell-based; conditions: Homo sapiens, 72 h; SKW3 T cell leukemia, 3 days
Procedure: as §1

SNB19 = assay: WST-1 cell growth assay (Table 3); assay type: cell-based; conditions: Homo sapiens, SNB-19, 72 h; SNB19 glioblastoma, 3 days
Procedure: as §1

LOX = assay: WST-1 cell growth assay (Table 3); assay type: cell-based; conditions: Homo sapiens, 72 h; LOX melanoma, 3 days
Procedure: as §1

OCI AML2 = assay: WST-1 cell growth assay (Table 3); assay type: cell-based; conditions: Homo sapiens, 72 h; OCI AML2 myloid leukemia, 3 days
Procedure: as §1

T47D = assay: WST-1 cell growth assay (Table 3); assay type: cell-based; conditions: Homo sapiens, 72 h; T47D breast adenocarcinoma, 3 days
Procedure: as §1

OCI LY7 = assay: WST-1 cell growth assay (Table 3); assay type: cell-based; conditions: Homo sapiens, 72 h; OCI LY7 B cell lymphoma, 3 days
Procedure: as §1

MCF7 = assay: WST-1 cell growth assay (Table 3); assay type: cell-based; conditions: Homo sapiens, 72 h; MCF7 breast adenocarcinoma, 3 days
Procedure: as §1

PC3 = assay: WST-1 cell growth assay (Table 3); assay type: cell-based; conditions: Homo sapiens, PC-3, 72 h; PC3 prostate adenocarcinoma, 3 days
Procedure: as §1

PPC1 = assay: WST-1 cell growth assay (Table 3); assay type: cell-based; conditions: Homo sapiens, PPC-1, 72 h; PPC1 prostate, 3 days
Procedure: as §1

[1] = test system: PBMC - Peripheral blood mononuclear cells; assay: WST-1 cell growth assay on stimulated PBMCs (Table 3); assay type: cell-based, human
[2] = Tolerance in NOD-SCID mice; assay type: in vivo; conditions: 0.15 mg/kg and 1.5 mg/kg
Procedure: (§2) In a pilot study, first the in vivo effects of compound Ic in a murine tumor model (70Z/3) were studied. […]. In this pilot study, 10^6 70Z/3 cells were injected into syngeneic mice (C57BL6×DBA/2) after which the mice were treated with compound Ic on days 2, 3, 4, 7, 8, and 9 at doses of 0.15 mg/kg or 1.5 mg/kg or with PBS. Some mice were also treated with the compound alone to test for toxic effects in the absence of tumor growth. On day 10, two mice from each group were euthanized and they were examined for the presence of disease. After 70Z/3 cells are injected they home to the spleen and proliferate causing increased spleen weight and cellularity. […]. Two additional mice from each group were followed for an additional 7 days during which mice in the treatment groups were treated daily.

[3] = test system: 70Z/3 murine acute lymphoblastic leukemia; assay: In vivo pilot study on 70Z/3 leukemic mice
Procedure: as §2

[4] = test system: leukemia/lymphoma and breast cancer cell lines (AML1, AML2, SKW3, OCI LY7, OCI MY2, MDA-MB-468 and MCF7); assay: WST-1 cell growth assay, summary over cell lines; assay type: cell-based; conditions: Homo sapiens, read-out: Inhibition constants (IC50s), range over cell lines
Procedure: as §1

70Z/3 (murine) = assay: WST-1 cell growth assay (Table 3); assay type: cell-based; conditions: Mus musculus, 72 h; 70Z/3 murine B cell leukemia, 3 days
Procedure: as §1
In a pilot study, first the in vivo effects of compound Ic in a murine tumor model (70Z/3) were studied. This murine model served to provide the baseline for toxicity data in a tumor setting. […] In this pilot study, 10^6 70Z/3 cells were injected into syngeneic mice (C57BL6×DBA/2) after which the mice were treated with compound Ic on days 2, 3, 4, 7, 8, and 9 at doses of 0.15 mg/kg or 1.5 mg/kg or with PBS. Some mice were also treated with the compound alone to test for toxic effects in the absence of tumor growth. On day 10, two mice from each group were euthanized and they were examined for the presence of disease. After 70Z/3 cells are injected they home to the spleen and proliferate causing increased spleen weight and cellularity. […] It would appear from this very small pilot study that mice can tolerate a dose of the drug which is ten times more than a dose which reduces tumor expansion in the spleen (FIG. 4 and Table 2). […]

ODCase = conditions: cited from earlier work
[5] = test system: mouse L1210 leukemia cells; conditions: 25 μM, cultured mouse L1210 leukemia cells; cited from earlier work
[6] = Homo sapiens, volunteer, read-out: IC50
[7] = healthy human PBMCs stimulated with concanavalin A and phorbol myristate acetate, read-out: inhibitory constants (IC50's)

Sequence of Mt ODCase (O26232 whole entry): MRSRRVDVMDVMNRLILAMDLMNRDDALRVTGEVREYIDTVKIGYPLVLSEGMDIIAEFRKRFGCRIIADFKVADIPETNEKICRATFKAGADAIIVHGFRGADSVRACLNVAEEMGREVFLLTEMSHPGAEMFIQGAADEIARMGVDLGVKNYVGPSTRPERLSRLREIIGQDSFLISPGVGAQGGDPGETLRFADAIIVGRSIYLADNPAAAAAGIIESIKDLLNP

| Compound | IC50 (MDA-MB-468) | IC50 (OVCAR4) | IC50 (COLO205) | IC50 (OCI MY2) | IC50 (OCI AML1) | IC50 (HS578T) | IC50 (CCD967) | IC50 (SKW3) | IC50 (SNB19) | IC50 (LOX) | IC50 (OCI AML2) | IC50 (T47D) | IC50 (OCI LY7) | IC50 (MCF7) | IC50 (PC3) | IC50 (PPC1) | IC50 [1, 6] | IC50 [1, 7] | IC50 [4] | IC50 (70Z/3 (murine)) | other results |
| --- | --- | --- | --- | --- | --- | --- | --- | --- | --- | --- | --- | --- | --- | --- | --- | --- | --- | --- | --- | --- | --- |
| O=c1cnn([C@@H]2O[C@H](COP(=O)(O)O)[C@@H](O)[C@H]2O)c(=O)[nH]1 [6-Aza-uridine uridine 5′-monophosphate, 6-aza-uridine 5′-monophosphate] |  |  |  |  |  |  |  |  |  |  |  |  |  |  |  |  |  |  |  |  | Ki (Mt ODCase): 11 µM |
| Nc1cc(=O)[nH]c(=O)n1[C@@H]1O[C@H](CO)[C@@H](O)[C@H]1O [Ic, 6-Amino uridine] | 3.7 ± 0.1 µM | > 4 µM | > 4 µM | > 4 µM | 0.8 ± 0.1 µM | > 4 µM | > 4 µM | 0.8 ± 0.1 µM | > 4 µM | > 4 µM | 0.9 ± 0.1 µM | > 4 µM | 1.8 ± 0.1 µM | 1.5 ± 0.1 µM | > 4 µM | > 4 µM | > 10 µM | > 10 µM | 0.7 to 3.5 µM | 0.3 µM | tolerance [2]: tolerated these doses without apparent toxicity; disease progression ([3]; followed for an additional 7 days, treated daily, untreated mice died on days 11 and 13): no sign of disease progression; spleen weight and cellularity ([3]; mice injected with 10^6 70Z/3 cells, 0.15 mg/kg or 1.5 mg/kg on days 2, 3, 4, 7, 8, 9, day 10): indistinguishable from the control mice; spleen weight or cellularity, compound alone ([3]; mice without tumor, compound alone, day 10): did not influence spleen weight or cellularity |
| [N-]=[N+]=Nc1cc(=O)[nH]c(=O)n1[C@@H]1O[C@H](CO)[C@@H](O)[C@H]1O [Id, 6-Azido uridine] | 2.5 ± 0.3 µM | > 4 µM | > 4 µM | 3.8 µM | 0.7 ± 0.1 µM | > 4 µM | > 4 µM | 0.7 ± 0.1 µM | > 4 µM | 3.8 ± 0.2 µM | 0.8 ± 0.2 µM | > 4 µM | 1 ± 0.2 µM | 1 ± 0.2 µM | > 4 µM | > 4 µM | > 10 µM | > 10 µM | 0.7 to 3.5 µM | 0.2 µM |  |
| NC(=O)c1[nH]nc(C2OC(COP(=O)(O)O)C(O)C2O)c1O (centres unmarked) [Pyrazofurin 5′-monophosphate] |  |  |  |  |  |  |  |  |  |  |  |  |  |  |  |  |  |  |  |  | Ki (ODCase): 0.005 µM |
| NC(=O)c1[nH]nc([C@@H]2O[C@H](CO)[C@@H](O)[C@H]2O)c1O [pyrazofurin] |  |  |  |  |  |  |  |  |  |  |  |  |  |  |  |  |  |  |  |  | accumulation of OMP [5]: eight-fold increase |
